Results from ChEMBL document CHEMBL1144755, “Co-existence of alpha-glucosidase-inhibitory and liver X receptor-regulatory activities and their separation by structural development” (Bioorg Med Chem, 2008).
Activity calls are given as the source filed them. No cut-off for these calls is given here.

Tests used:
[1] = molecular target: T1, Oxysterols receptor LXR-beta (Homo sapiens, UniProt P55055); assay: Antagonist activity at human recombinant LXRbeta expressed in HEK293 cells by luciferase reporter gene assay; assay type: functional, cell-based
T1 sequence (P55055 whole entry): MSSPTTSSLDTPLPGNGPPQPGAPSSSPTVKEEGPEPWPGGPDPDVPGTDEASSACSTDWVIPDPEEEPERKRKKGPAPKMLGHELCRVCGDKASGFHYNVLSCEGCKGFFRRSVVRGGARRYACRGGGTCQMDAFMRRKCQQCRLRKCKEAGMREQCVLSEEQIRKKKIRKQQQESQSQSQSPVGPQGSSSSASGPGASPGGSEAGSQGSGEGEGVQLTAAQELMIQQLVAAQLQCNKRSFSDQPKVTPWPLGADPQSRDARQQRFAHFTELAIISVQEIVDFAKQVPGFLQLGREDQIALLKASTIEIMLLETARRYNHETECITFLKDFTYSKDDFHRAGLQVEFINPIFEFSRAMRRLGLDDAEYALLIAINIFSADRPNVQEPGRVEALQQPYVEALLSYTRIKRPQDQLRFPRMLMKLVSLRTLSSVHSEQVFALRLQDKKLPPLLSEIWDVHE

[2] = Inhibition of Saccharomyces sp. alpha-glucosidase
[3] = molecular target: T2, Oxysterols receptor LXR-alpha (Homo sapiens, UniProt Q13133); assay: Antagonist activity at human recombinant LXRalpha expressed in HEK293 cells by luciferase reporter gene assay; assay type: functional, cell-based
T2 sequence (Q13133 whole entry): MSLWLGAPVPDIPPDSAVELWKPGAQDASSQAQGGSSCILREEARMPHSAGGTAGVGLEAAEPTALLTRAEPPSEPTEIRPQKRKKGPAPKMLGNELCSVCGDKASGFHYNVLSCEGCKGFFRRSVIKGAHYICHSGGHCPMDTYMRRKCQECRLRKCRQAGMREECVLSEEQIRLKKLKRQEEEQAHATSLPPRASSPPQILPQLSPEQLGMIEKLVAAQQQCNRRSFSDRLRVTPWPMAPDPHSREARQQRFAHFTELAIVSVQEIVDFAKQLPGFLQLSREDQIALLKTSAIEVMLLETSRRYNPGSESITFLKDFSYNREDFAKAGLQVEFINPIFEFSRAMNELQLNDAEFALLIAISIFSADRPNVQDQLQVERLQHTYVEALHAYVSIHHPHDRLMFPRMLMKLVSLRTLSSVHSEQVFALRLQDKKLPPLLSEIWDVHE

[4] = Agonist activity at LXR; assay type: functional

Compound | IC50 [1] | IC50 [2] | IC50 [3] | Activity [4]
O=c1c(-c2ccc(O)cc2)coc2cc(O)cc(O)c12 [GENISTEIN] | 22 µM | 100 µM | 31 µM | inactive
COc1ccc2cc1Oc1ccc(cc1)CCc1ccccc1-c1ccc(cc1)CC2 | 41 µM | > 100 µM | 7.6 µM | inactive
CC(C)CC[C@@H](O)[C@@H](C)[C@H]1CC[C@H]2[C@@H]3CC=C4C[C@@H](O)CC[C@]4(C)[C@H]3CC[C@]12C [22(R)-HYDROXYCHOLESTEROL] | – | 100 µM | – | inactive
COc1ccc2c(c1)CCc1ccc(cc1)Oc1cc(ccc1OC)CCc1ccc-2c(OC)c1 | 14 µM | 49 µM | 2 µM | inactive
O=S(=O)(c1ccccc1)N(CC(F)(F)F)c1ccc(C(O)(C(F)(F)F)C(F)(F)F)cc1 [T091317] | – | 100 µM | – | inactive
COc1ccc2cc1Oc1ccc(cc1)CCc1ccccc1-c1ccc(cc1OC)CC2 | 12 µM | 42 µM | 2.2 µM | inactive
O=C1c2ccccc2C(=O)N1c1ccccc1CCc1ccccc1 | – | 16.2 µM | – | inactive
CC(C)c1cccc(C(C)C)c1N1C(=O)c2ccccc2C1=S | 18 µM | 8 µM | 3.1 µM | inactive
COc1ccc2c(c1)CCc1ccc(cc1)Oc1cc(ccc1OC)CCc1ccc-2cc1 | 26 µM | 40 µM | 3.6 µM | inactive
OC[C@H]1NC[C@H](O)[C@@H](O)[C@@H]1O [DUVOGLUSTAT] | > 100 µM | 250 µM | > 100 µM | inactive
COc1ccc2c(c1)CCc1ccc(cc1)Oc1cccc(c1)CCc1ccc-2c(OC)c1 | 46 µM | > 30 µM | 25 µM | inactive
O=C(O)Cc1cccc(OCCCN(Cc2cccc(C(F)(F)F)c2Cl)CC(c2ccccc2)c2ccccc2)c1 | – | 4.8 µM | – | inactive
COc1cc2ccc1-c1ccccc1CCc1ccc(cc1)Oc1cccc(c1)CC2 | 11 µM | 67 µM | 2.5 µM | inactive
c1cc2cc(c1)Oc1ccc(cc1)CCc1ccccc1-c1ccc(cc1)CC2 [DEOXYRICCARDIN C] | 77 µM | 18 µM | 7.1 µM | inactive
CCCCCCc1ccccc1N1C(=O)c2ccccc2C1=O | – | 24.7 µM | – | inactive

Second part, led by results:

IC50 [1] | IC50 [2] | IC50 [3] | Compound | Activity [4]
7.3 µM | 19 µM | 3.2 µM | Oc1cc2ccc1-c1ccccc1CCc1ccc(cc1)Oc1cccc(c1)CC2 | inactive
6.6 µM | 9.9 µM | 4.9 µM | Oc1ccc2c(c1)CCc1ccc(cc1)Oc1cc(ccc1O)CCc1ccc-2c(O)c1 [RICCARDI C] | inactive
7.6 µM | 4.9 µM | 4.4 µM | Oc1ccc2c(c1)CCc1ccc(cc1)Oc1cc(ccc1O)CCc1ccc-2cc1 | inactive
10 µM | 5.1 µM | 8.4 µM | Oc1ccc2c(c1)CCc1ccc(cc1)Oc1cccc(c1)CCc1ccc-2c(O)c1 | inactive
14 µM | 15 µM | 5.7 µM | Oc1ccc2cc1Oc1ccc(cc1)CCc1ccccc1-c1ccc(cc1)CC2 | inactive
13 µM | 8.6 µM | 6.6 µM | Oc1ccc2cc1Oc1ccc(cc1)CCc1ccccc1-c1ccc(cc1O)CC2 | inactive
